Tested on: MV-4-11 cells
Assay: Gene expression microarray analysis (Affymetrix PrimeView) and GSEA
Assay type: cell-based, human
Set-up: RFU PODN (11730768_x_at) / Fold change /veh PODN (11730768_x_at) / RFU LINC00158 (11744669_a_at) / Fold change /veh LINC00158 (11744669_a_at) / RFU DUSP10 (11751237_a_at) / Fold change /veh DUSP10 (11751237_a_at) / RFU ID3 (11757404_x_at) / Fold change /veh ID3 (11757404_x_at) / RFU PLEKHG5 (11737974_s_at) / Fold change /veh PLEKHG5 (11737974_s_at) / RFU LRRC4B (11730491_at) / Fold change /veh LRRC4B (11730491_at) / RFU GIMAP4 (11747438_a_at) / Fold change /veh GIMAP4 (11747438_a_at) / RFU KRT8 (11758183_x_at) / Fold change /veh KRT8 (11758183_x_at) / RFU CNN1 (11734310_a_at) / Fold change /veh CNN1 (11734310_a_at) / RFU VPS37D (11726825_at) / Fold change /veh VPS37D (11726825_at) / RFU C10orf10 (11716522_x_at) / Fold change /veh C10orf10 (11716522_x_at) / RFU KIR2DL2 /// KIR2DL4 /// KIR2DL5A /// KIR2DL5B /// KIR2DS1 /// KIR2DS2 /// KIR2DS3 /// KIR2DS4 /// KIR3DL3 /// KIR3DL3 /// KIR3DS1 (11738374_at) / Fold change /veh KIR2DL2 /// KIR2DL4 /// KIR2DL5A /// KIR2DL5B /// KIR2DS1 /// KIR2DS2 /// KIR2DS3 /// KIR2DS4 /// KIR3DL3 /// KIR3DL3 /// KIR3DS1 (11738374_at) / RFU C1QL1 (11718748_at) / Fold change /veh C1QL1 (11718748_at) / RFU TMPRSS4 (11747572_a_at) / Fold change /veh TMPRSS4 (11747572_a_at) / RFU HAMP (11756126_x_at) / Fold change /veh HAMP (11756126_x_at) / RFU RNFT2 (11725882_a_at) / Fold change /veh RNFT2 (11725882_a_at) / RFU NR4A2 (11747474_a_at) / Fold change /veh NR4A2 (11747474_a_at) / RFU ABCC12 (11746883_a_at) / Fold change /veh ABCC12 (11746883_a_at) / RFU TMEM136 (11760407_x_at) / Fold change /veh TMEM136 (11760407_x_at) / RFU CLDN22 /// WWC2 (11732394_at) / Fold change /veh CLDN22 /// WWC2 (11732394_at) / RFU HLA-DPB1 (11760878_x_at) / Fold change /veh HLA-DPB1 (11760878_x_at) / RFU SPINT1 (11716480_a_at) / Fold change /veh SPINT1 (11716480_a_at) / RFU GAP43 (11754022_s_at) / Fold change /veh GAP43 (11754022_s_at) / RFU A4GNT (11735810_at) / Fold change /veh A4GNT (11735810_at) / RFU PRB3 (11715151_x_at) / Fold change /veh PRB3 (11715151_x_at) / RFU TUBB4B (11761932_at) / Fold change /veh TUBB4B (11761932_at) / RFU CAPN14 (11732068_a_at) / Fold change /veh CAPN14 (11732068_a_at) / RFU TMCC2 (11721928_a_at) / Fold change /veh TMCC2 (11721928_a_at) / RFU IRGQ (11745062_a_at) / Fold change /veh IRGQ (11745062_a_at) / RFU FAM174B (11720279_a_at) / Fold change /veh FAM174B (11720279_a_at) / RFU TMPRSS4 (11748680_a_at) / Fold change /veh TMPRSS4 (11748680_a_at) / RFU FAM212B (11763350_a_at) / Fold change /veh FAM212B (11763350_a_at) / RFU PLEKHG5 (11743358_a_at) / Fold change /veh PLEKHG5 (11743358_a_at) / RFU ZSCAN30 (11745921_a_at) / Fold change /veh ZSCAN30 (11745921_a_at) / RFU CMKLR1 (11741424_a_at) / Fold change /veh CMKLR1 (11741424_a_at) / RFU LOC101060620 /// MAPK8IP1 (11723275_at) / Fold change /veh LOC101060620 /// MAPK8IP1 (11723275_at) / RFU SPTSSB (11747773_x_at) / Fold change /veh SPTSSB (11747773_x_at) / RFU PRSS12 (11739890_at) / Fold change /veh PRSS12 (11739890_at) / RFU BIN1 (11741810_x_at) / Fold change /veh BIN1 (11741810_x_at) / RFU WNT11 (11732464_a_at) / Fold change /veh WNT11 (11732464_a_at) / RFU C10orf10 (11716521_a_at) / Fold change /veh C10orf10 (11716521_a_at) / RFU C5orf56 (11738089_at) / Fold change /veh C5orf56 (11738089_at) / RFU CYB561 (11721691_x_at) / Fold change /veh CYB561 (11721691_x_at) / RFU ANKRD19P (11752326_a_at) / Fold change /veh ANKRD19P (11752326_a_at) / RFU OR2T12 /// OR2T33 /// OR2T8 (11738714_s_at) / Fold change /veh OR2T12 /// OR2T33 /// OR2T8 (11738714_s_at) / RFU VCAN (11748164_a_at) / Fold change /veh VCAN (11748164_a_at) / RFU JSRP1 (11732532_at) / Fold change /veh JSRP1 (11732532_at) / RFU KRTAP10-11 (11738290_x_at) / Fold change /veh KRTAP10-11 (11738290_x_at) / RFU MYO3A (11730013_a_at) / Fold change /veh MYO3A (11730013_a_at) / RFU EBF3 (11725865_a_at) / Fold change /veh EBF3 (11725865_a_at) / RFU CAMK2N1 (11719241_x_at) / Fold change /veh CAMK2N1 (11719241_x_at) / RFU C5orf56 (11738088_a_at) / Fold change /veh C5orf56 (11738088_a_at) / RFU OLFML3 (11715873_a_at) / Fold change /veh OLFML3 (11715873_a_at) / RFU LOC100653217 /// NTM (11731650_a_at) / Fold change /veh LOC100653217 /// NTM (11731650_a_at) / RFU MAPK11 (11762145_a_at) / Fold change /veh MAPK11 (11762145_a_at) / RFU FIZ1 (11724087_x_at) / Fold change /veh FIZ1 (11724087_x_at) / RFU OASL (11726364_x_at) / Fold change /veh OASL (11726364_x_at) / RFU SOX15 (11748057_x_at) / Fold change /veh SOX15 (11748057_x_at) / RFU CD79A (11719716_a_at) / Fold change /veh CD79A (11719716_a_at) / RFU HIST1H1D (11736915_at) / Fold change /veh HIST1H1D (11736915_at) / RFU CASKIN2 (11723855_a_at) / Fold change /veh CASKIN2 (11723855_a_at) / RFU LOC730098 (11760151_x_at) / Fold change /veh LOC730098 (11760151_x_at) / RFU OR4N2 (11742367_at) / Fold change /veh OR4N2 (11742367_at) / RFU PRRT2 (11749266_a_at) / Fold change /veh PRRT2 (11749266_a_at) / RFU SNX32 (11753110_a_at) / Fold change /veh SNX32 (11753110_a_at) / RFU CDHR5 (11726645_a_at) / Fold change /veh CDHR5 (11726645_a_at) / RFU RCAN1 (11760418_a_at) / Fold change /veh RCAN1 (11760418_a_at) / RFU FAM167A (11723789_a_at) / Fold change /veh FAM167A (11723789_a_at) / RFU FAM26E (11764081_at) / Fold change /veh FAM26E (11764081_at) / RFU ISYNA1 (11749810_s_at) / Fold change /veh ISYNA1 (11749810_s_at) / RFU ACY1 (11761880_at) / Fold change /veh ACY1 (11761880_at) / RFU 11764098_at / Fold change /veh 11764098_at / RFU SAMD14 (11745864_x_at) / Fold change /veh SAMD14 (11745864_x_at) / RFU NPB (11741838_a_at) / Fold change /veh NPB (11741838_a_at) / RFU TMPRSS6 (11731388_a_at) / Fold change /veh TMPRSS6 (11731388_a_at) / RFU KRTAP10-2 (11738614_at) / Fold change /veh KRTAP10-2 (11738614_at) / RFU ARHGAP8 /// PRR5-ARHGAP8 (11727945_x_at) / Fold change /veh ARHGAP8 /// PRR5-ARHGAP8 (11727945_x_at) / RFU KRTAP5-7 /// NADSYN1 (11734609_at) / Fold change /veh KRTAP5-7 /// NADSYN1 (11734609_at) / RFU RASL12 (11751679_a_at) / Fold change /veh RASL12 (11751679_a_at) / RFU CDKN2B (11736163_a_at) / Fold change /veh CDKN2B (11736163_a_at) / RFU PRF1 (11729649_at) / Fold change /veh PRF1 (11729649_at) / RFU, ZNF638 /// ZNF638-IT1 / Fold change vs veh, ZNF638 /// ZNF638-IT1 / RFU, PANK3 / Fold change vs veh, PANK3 / RFU, SH3YL1 / Fold change vs veh, SH3YL1 / RFU, ZEB2 / Fold change vs veh, ZEB2 / RFU, NRIP1 / Fold change vs veh, NRIP1 / RFU, PTTG1IP / Fold change vs veh, PTTG1IP / RFU, CAPN2 / Fold change vs veh, CAPN2 / RFU, MED14 / Fold change vs veh, MED14 / RFU, SNORA58 / Fold change vs veh, SNORA58 / RFU, C1orf63 / Fold change vs veh, C1orf63 / RFU, LRRFIP1 / Fold change vs veh, LRRFIP1 / RFU, NDUFAF7 / Fold change vs veh, NDUFAF7 / RFU, SLC12A2 / Fold change vs veh, SLC12A2 / RFU, IBTK / Fold change vs veh, IBTK / RFU, ESF1 / Fold change vs veh, ESF1 / Fold change vs veh, TMEM50B / RFU, TAOK1 / Fold change vs veh, TAOK1 / RFU, ACBD3 / Fold change vs veh, ACBD3 / RFU, TMA16 / Fold change vs veh, TMA16 / RFU, RWDD3 / Fold change vs veh, RWDD3 / RFU, BCAT1 / Fold change vs veh, BCAT1 / RFU, EDEM3 / Fold change vs veh, EDEM3 / RFU, TMEM33 / Fold change vs veh, TMEM33 / RFU, WDR75 / Fold change vs veh, WDR75 / RFU, AHCTF1 / Fold change vs veh, AHCTF1 / RFU, TFRC / Fold change vs veh, TFRC / RFU, ZDHHC17 / Fold change vs veh, ZDHHC17 / RFU, NOM1 / Fold change vs veh, NOM1 / RFU, ARL8B / Fold change vs veh, ARL8B / RFU, ZBTB11 / Fold change vs veh, ZBTB11 / RFU, TAMM41 / Fold change vs veh, TAMM41 / RFU, KIAA1704 /// LOC100996395 / Fold change vs veh, KIAA1704 /// LOC100996395 / RFU, ING1 / Fold change vs veh, ING1 / RFU, TRMT61B / Fold change vs veh, TRMT61B / RFU, FUBP3 / Fold change vs veh, FUBP3 / RFU, TP53 / Fold change vs veh, TP53 / RFU, TNKS2 / Fold change vs veh, TNKS2 / RFU, ZFP14 / Fold change vs veh, ZFP14 / RFU, ACTR2 / Fold change vs veh, ACTR2 / RFU, PPP3R1 / Fold change vs veh, PPP3R1 / RFU, PIK3R1 / Fold change vs veh, PIK3R1 / RFU, HNRNPA1 / Fold change vs veh, HNRNPA1 / RFU, RNF170 / Fold change vs veh, RNF170 / RFU, ZNF28 / Fold change vs veh, ZNF28 / RFU, RNGTT / Fold change vs veh, RNGTT / RFU, OGT / Fold change vs veh, OGT / RFU, BRD1 / Fold change vs veh, BRD1 / RFU, MARS / Fold change vs veh, MARS / RFU, ZNF655 / Fold change vs veh, ZNF655 / RFU, FAHD1 / Fold change vs veh, FAHD1 / RFU, BDP1 / Fold change vs veh, BDP1 / RFU, LRRCC1 / Fold change vs veh, LRRCC1 / RFU, ARID1A / Fold change vs veh, ARID1A / RFU, ZNF146 / Fold change vs veh, ZNF146 / RFU, ZNF330 / Fold change vs veh, ZNF330 / RFU, GPN3 / Fold change vs veh, GPN3 / RFU, C9orf123 / Fold change vs veh, C9orf123 / RFU, N4BP2L2 / Fold change vs veh, N4BP2L2 / RFU, ARFIP1 / Fold change vs veh, ARFIP1 / RFU, FAM179B / Fold change vs veh, FAM179B / RFU, BCL10 / Fold change vs veh, BCL10 / RFU, UHRF1BP1L / Fold change vs veh, UHRF1BP1L / RFU, BET1 / Fold change vs veh, BET1 / RFU, CNOT2 / Fold change vs veh, CNOT2 / RFU, ZNF268 / Fold change vs veh, ZNF268 / Fold change vs veh, ZNF507 / RFU, DGCR2 / Fold change vs veh, DGCR2 / RFU, WDSUB1 / Fold change vs veh, WDSUB1 / Fold change vs veh, HSP90B1 /// MIR3652 / RFU, ADSS / Fold change vs veh, ADSS / RFU, GK / Fold change vs veh, GK / RFU, ZNF148 / Fold change vs veh, ZNF148 / RFU, TAF9 / Fold change vs veh, TAF9 / RFU, SLC1A5 / Fold change vs veh, SLC1A5 / RFU, SLMO2 / Fold change vs veh, SLMO2 / RFU, ABCC4 / Fold change vs veh, ABCC4 / RFU, LOC101060439 /// RAP1B / Fold change vs veh, LOC101060439 /// RAP1B / RFU, RFX7 / Fold change vs veh, RFX7 / RFU, GTPBP10 / Fold change vs veh, GTPBP10 / RFU, CNEP1R1 / Fold change vs veh, CNEP1R1 / RFU, BIVM-ERCC5 /// ERCC5 / Fold change vs veh, BIVM-ERCC5 /// ERCC5 / RFU, ILF3 / Fold change vs veh, ILF3 / RFU 11762660_at / Fold change /veh 11762660_at / RFU VCAN (11757783_s_at) / Fold change /veh VCAN (11757783_s_at) / RFU DDX43 (11728927_at) / Fold change /veh DDX43 (11728927_at) / RFU KRT8 (11758188_x_at) / Fold change /veh KRT8 (11758188_x_at) / RFU NKD1 (11759106_at) / Fold change /veh NKD1 (11759106_at) / RFU SRD5A1 (11742802_a_at) / Fold change /veh SRD5A1 (11742802_a_at) / RFU TPSAB1 /// TPSB2 (11721975_s_at) / Fold change /veh TPSAB1 /// TPSB2 (11721975_s_at) / RFU GSTM3 (11746129_a_at) / Fold change /veh GSTM3 (11746129_a_at) / RFU IL23R (11737362_x_at) / Fold change /veh IL23R (11737362_x_at) / RFU TMEM51 (11727254_a_at) / Fold change /veh TMEM51 (11727254_a_at) / RFU PIWIL2 (11732686_x_at) / Fold change /veh PIWIL2 (11732686_x_at) / RFU ORM1 (11744905_x_at) / Fold change /veh ORM1 (11744905_x_at) / RFU CCDC152 (11743942_at) / Fold change /veh CCDC152 (11743942_at) / RFU ECM1 (11717891_a_at) / Fold change /veh ECM1 (11717891_a_at) / RFU IL23R (11748794_a_at) / Fold change /veh IL23R (11748794_a_at) / RFU TNFAIP8L3 (11732012_x_at) / Fold change /veh TNFAIP8L3 (11732012_x_at) / RFU MBOAT4 (11741988_at) / Fold change /veh MBOAT4 (11741988_at) / RFU 11764193_at / Fold change /veh 11764193_at / RFU TMEM53 (11763286_at) / Fold change /veh TMEM53 (11763286_at) / RFU MAGEB2 (11727129_at) / Fold change /veh MAGEB2 (11727129_at) / RFU TMEM200A (11744735_a_at) / Fold change /veh TMEM200A (11744735_a_at) / RFU CCDC152 (11751479_a_at) / Fold change /veh CCDC152 (11751479_a_at) / RFU FAM211A (11726209_a_at) / Fold change /veh FAM211A (11726209_a_at) / RFU RGS16 (11746705_a_at) / Fold change /veh RGS16 (11746705_a_at) / RFU VCAN (11755009_s_at) / Fold change /veh VCAN (11755009_s_at) / RFU RHOB (11743442_s_at) / Fold change /veh RHOB (11743442_s_at) / RFU RGS16 (11720943_a_at) / Fold change /veh RGS16 (11720943_a_at) / RFU RGS16 (11720944_at) / Fold change /veh RGS16 (11720944_at) / RFU, VPS4B / Fold change vs veh, VPS4B / RFU, CREB1 / Fold change vs veh, CREB1 / RFU, DNAJC13 / Fold change vs veh, DNAJC13 / RFU, GNAQ / Fold change vs veh, GNAQ / RFU, CDK5R1 / Fold change vs veh, CDK5R1 / RFU, ZRANB3 / Fold change vs veh, ZRANB3 / RFU, CUL4A / Fold change vs veh, CUL4A / RFU, CCNY / Fold change vs veh, CCNY / RFU, UFL1 / Fold change vs veh, UFL1 / RFU, COG3 / Fold change vs veh, COG3 / RFU, DIAPH2 / Fold change vs veh, DIAPH2 / RFU, SKA2 / Fold change vs veh, SKA2 / RFU, AFF3 / Fold change vs veh, AFF3 / RFU, LMF1 / Fold change vs veh, LMF1 / RFU, IPO11 / Fold change vs veh, IPO11 / RFU, DFFB / Fold change vs veh, DFFB / RFU, FOXP1 / Fold change vs veh, FOXP1 / RFU, CARD8 / Fold change vs veh, CARD8 / RFU, STRN3 / Fold change vs veh, STRN3 / RFU, ADK / Fold change vs veh, ADK / RFU, RASSF2 / Fold change vs veh, RASSF2 / RFU, WIPF1 / Fold change vs veh, WIPF1 / RFU, LARP1B / Fold change vs veh, LARP1B / RFU, RASA1 / Fold change vs veh, RASA1 / RFU, RB1 / Fold change vs veh, RB1 / RFU, PPFIA1 / Fold change vs veh, PPFIA1 / RFU, MAT2A / Fold change vs veh, MAT2A / RFU, CCT5 / Fold change vs veh, CCT5 / RFU, WDR92 / Fold change vs veh, WDR92 / RFU, CUX1 / Fold change vs veh, CUX1 / RFU, TTC7A / Fold change vs veh, TTC7A / RFU, TMEM135 / Fold change vs veh, TMEM135 / RFU, DEPTOR / Fold change vs veh, DEPTOR / RFU, CPM / Fold change vs veh, CPM / RFU, DNAJB6 / Fold change vs veh, DNAJB6 / RFU, CACNA2D3 / Fold change vs veh, CACNA2D3 / RFU, DTX4 / Fold change vs veh, DTX4 / RFU, TFCP2 / Fold change vs veh, TFCP2 / RFU, GMCL1 /// GMCL1P1 / Fold change vs veh, GMCL1 /// GMCL1P1 / RFU, AEBP2 / Fold change vs veh, AEBP2 / RFU, SNHG1 /// SNORD22 /// SNORD25 /// SNORD26 /// SNORD27 /// SNORD28 /// SNORD29 /// SNORD31 / Fold change vs veh, SNHG1 /// SNORD22 /// SNORD25 /// SNORD26 /// SNORD27 /// SNORD28 /// SNORD29 /// SNORD31 / Fold change (Aza/veh), C12orf56 (ProbeSet 11735607_a_at) / Fold change (ACY-1035/veh), C12orf56 (ProbeSet 11735607_a_at) / Fold change (Aza/veh), FGFR1OP (ProbeSet 11751329_s_at) / Fold change (ACY-1035/veh), FGFR1OP (ProbeSet 11751329_s_at) / Fold change (Aza/veh), VPS36 (ProbeSet 11739960_a_at) / Fold change (ACY-1035/veh), VPS36 (ProbeSet 11739960_a_at) / RFU SYPL1 (11715823_x_at) / Fold change /veh SYPL1 (11715823_x_at) / RFU IGFBP7 (11715501_s_at) / Fold change /veh IGFBP7 (11715501_s_at) / RFU REEP3 (11722064_at) / Fold change /veh REEP3 (11722064_at) / RFU IGLL1 (11728026_x_at) / Fold change /veh IGLL1 (11728026_x_at): dose or concentration left out as unconfirmed
Details: ProbeSet 11746640_a_at; LIST D

Nc1ccc(-c2cccs2)cc1NC(=O)c1ccc2c(c1)cc(C1CC1)n2CCN1CCOCC1 [ACY-1035] was tested, and the “Fold change vs veh, RASSF2” value was 0.86.
